# Assay results as given in PubChem BioAssay AID328 (DTP/NCI, 2004).
# Values joined by “and” are separate entries in the source; they are usually repeats but may differ in a detail not shown here. Equal values may be shown once. Inconclusive results and toxic doses are left out.
# System: BDF1 mice, P388 leukemia ip, median survival T/C
# Assay: NCI In Vivo Anticancer Drug Screen. Data for tumor model P388 Leukemia (intraperitoneal) in B6D2F1 (BDF1) mice
# Details: endpoint: median survival time, higher = longer survival
# Outline: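 Antitumour effect was judged in vivo: survival in drug-treated mice, normalised to that of vehicle-dosed controls, gives the reported T/C.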
# [1] = dose: 12.5 mg/kg/injection, schedule: Q01DX009 (ip), vehicle: saline with Tween-80
# [2] = dose: 100.0 mg/kg/injection, schedule: Q04DX003 (ip), vehicle: saline with Tween-80
# [3] = dose: 200.0 mg/kg/injection, schedule: Q04DX003 (ip), vehicle: saline with Tween-80
# [4] = dose: 400.0 mg/kg/injection, schedule: Q04DX003 (ip), vehicle: saline with Tween-80
# [5] = dose: 12.5 mg/kg/injection, schedule: Q04DX003 (ip), vehicle: saline with Tween-80
# [6] = dose: 25.0 mg/kg/injection, schedule: Q04DX003 (ip), vehicle: saline with Tween-80
# [7] = dose: 50.0 mg/kg/injection, schedule: Q04DX003 (ip), vehicle: saline with Tween-80
# [8] = dose: 25.0 mg/kg/injection, schedule: Q01DX009 (ip), vehicle: saline with Tween-80
# [9] = dose: 50.0 mg/kg/injection, schedule: Q01DX009 (ip), vehicle: saline with Tween-80
# [10] = dose: 200.0 mg/kg/injection, schedule: Q01DX009 (ip), vehicle: saline with Tween-80
# [11] = dose: 100.0 mg/kg/injection, schedule: Q01DX009 (ip), vehicle: saline with Tween-80
# [12] = dose: 25.0 mg/kg/injection, schedule: Q01DX009 (ip), vehicle: Klucel (hydroxypropylcellulose) (HPC)
# [13] = dose: 50.0 mg/kg/injection, schedule: Q01DX009 (ip), vehicle: Klucel (hydroxypropylcellulose) (HPC)
# [14] = dose: 100.0 mg/kg/injection, schedule: Q01DX009 (ip), vehicle: Klucel (hydroxypropylcellulose) (HPC)
# [15] = dose: 100.0 mg/kg/injection, schedule: Q04DX003 (ip), vehicle: Klucel (hydroxypropylcellulose) (HPC)
# [16] = dose: 200.0 mg/kg/injection, schedule: Q04DX003 (ip), vehicle: Klucel (hydroxypropylcellulose) (HPC)
# [17] = dose: 400.0 mg/kg/injection, schedule: Q04DX003 (ip), vehicle: Klucel (hydroxypropylcellulose) (HPC)
# [18] = dose: 12.5 mg/kg/injection, schedule: Q01DX009 (ip), vehicle: Klucel (hydroxypropylcellulose) (HPC)
# [19] = dose: 12.5 mg/kg/injection, schedule: Q04DX003 (ip), vehicle: saline
# [20] = dose: 50.0 mg/kg/injection, schedule: Q04DX003 (ip), vehicle: saline
smiles,measurement,setting,value
C#CC(C)(C)NC(=O)NC12CC3CC(CC(C3)C1)C2,T/C,"dose: 200.0 mg/kg/injection, schedule: Q01DX001 (ip), vehicle: saline with Tween-80",88 % of control
same,T/C,"dose: 400.0 mg/kg/injection, schedule: Q01DX001 (ip), vehicle: saline with Tween-80",95 % of control
NC(=S)N/N=C/c1ccc(OC(=O)Cc2ccccc2)cn1,T/C,[1],150 % of control
CCCCCC(Br)C(Br)CC(Br)C(Br)CCCCCCCC(=O)O (stereo not given),T/C,"dose: 100.0 mg/kg/injection, schedule: Q01DX001 (ip), vehicle: Klucel (hydroxypropylcellulose) (HPC)",100 % of control
same,T/C,"dose: 200.0 mg/kg/injection, schedule: Q01DX001 (ip), vehicle: Klucel (hydroxypropylcellulose) (HPC)",109 % of control
same,T/C,"dose: 400.0 mg/kg/injection, schedule: Q01DX001 (ip), vehicle: Klucel (hydroxypropylcellulose) (HPC)",104 % of control
COC(=O)C1C2(C)CCc3cc(OC)ccc3C2=CC(=O)C1(C)C(=O)OC (stereo not given),T/C,"dose: 50.0 mg/kg/injection, schedule: Q04DX003 (sc), vehicle: steriod suspending solution",100 % of control
same,T/C,"dose: 100.0 mg/kg/injection, schedule: Q04DX003 (sc), vehicle: steriod suspending solution",90 % of control
CCCCNC(=O)Nc1ccccc1Cl,T/C,[2],100 % of control
same,T/C,[3],100 % of control
same,T/C,[4],95 % of control
Cc1cc(N/N=C/c2ccc(N(CCCl)CCCl)cc2)c2cc3c(cc2n1)OCO3,T/C,[5],114 % of control
same,T/C,[6],105 % of control
same,T/C,[7],115 % of control
O=C1OCC/C1=C1/Nc2ccccc2NC1=O,T/C,[1],105 % of control
same,T/C,[8],100 % of control
same,T/C,[9],96 % of control
CCN(CC)Cc1cc(Nc2cc(C)nc(Nc3ccc(Cl)c(Cl)c3)n2)ccc1OC,T/C,[5],110 % of control
same,T/C,[6],110 % of control
same,T/C,[7],110 % of control
Cc1ccc(CNc2ccc(I)cc2)cc1,T/C,[2],105 % of control
same,T/C,[3],95 % of control
same,T/C,[4],105 % of control
Cc1onc(-c2ccccc2)c1C(=O)N1CCCN2C(=O)c3ccccc3C21 (stereo not given),T/C,[10],98 % of control
COC1=C[C@H](C)[C@H]2C[C@@H]3OC(=O)CC[C@@H]3C[C@]2(C)C1=O,T/C,"dose: 2.0 mg/kg/injection, schedule: Q01DX009 (ip), vehicle: saline + alcohol",115 % of control
same,T/C,"dose: 4.0 mg/kg/injection, schedule: Q01DX009 (ip), vehicle: saline + alcohol",106 % of control
same,T/C,"dose: 8.0 mg/kg/injection, schedule: Q01DX009 (ip), vehicle: saline + alcohol",106 % of control
same,T/C,"dose: 16.0 mg/kg/injection, schedule: Q01DX009 (ip), vehicle: saline + alcohol",103 % of control
O=C1c2ccccc2C(=O)c2c(Sc3ccccc3)cccc21,T/C,[10],95 % of control
COC(=O)/C=C1\C(C(=O)OC)=Cc2ccccc2N1C,T/C,[1],100 % of control
same,T/C,[8],100 % of control
same,T/C,[6],104 % of control
same,T/C,[9],105 % of control
same,T/C,[7],100 % of control
same,T/C,[11],91 % of control
same,T/C,[2],87 % of control and 90 % of control
same,T/C,[3],87 % of control
C[C@]12CCC(=O)C=C1CC[C@H]1[C@@H]3CC[C@@]4(OCC4=O)[C@@]3(C)C[C@H](O)[C@@]12F,T/C,[12],96 % of control
same,T/C,[13],104 % of control
same,T/C,[14],104 % of control
same,T/C,[15],104 % of control
same,T/C,[16],112 % of control
same,T/C,[17],108 % of control
OCC#CC#CCO,T/C,"dose: 25.0 mg/kg/injection, schedule: Q01DX001 (ip), vehicle: saline",95 % of control
same,T/C,"dose: 50.0 mg/kg/injection, schedule: Q01DX001 (ip), vehicle: saline",118 % of control
same,T/C,"dose: 100.0 mg/kg/injection, schedule: Q01DX001 (ip), vehicle: saline",100 % of control and 109 % of control
COC(=O)Cc1c[nH]c(=O)[nH]c1=O,T/C,"dose: 50.0 mg/kg/injection, schedule: Q01DX009 (ip), vehicle: water",117 % of control
same,T/C,"dose: 100.0 mg/kg/injection, schedule: Q01DX009 (ip), vehicle: water",102 % of control
same,T/C,"dose: 100.0 mg/kg/injection, schedule: Q04DX003 (ip), vehicle: water",99 % of control
same,T/C,"dose: 200.0 mg/kg/injection, schedule: Q01DX009 (ip), vehicle: water",96 % of control
same,T/C,"dose: 200.0 mg/kg/injection, schedule: Q04DX003 (ip), vehicle: water",94 % of control
N#CSc1ccc(Nc2ccc(SC#N)cc2)cc1,T/C,"dose: 6.25 mg/kg/injection, schedule: Q01DX009 (ip), vehicle: Klucel (hydroxypropylcellulose) (HPC)",100 % of control
same,T/C,[18],100 % of control
same,T/C,[12],118 % of control
same,T/C,"dose: 35.0 mg/kg/injection, schedule: Q01DX009 (ip), vehicle: Klucel (hydroxypropylcellulose) (HPC)",108 % of control
same,T/C,[13],109 % of control
same,T/C,"dose: 53.0 mg/kg/injection, schedule: Q01DX009 (ip), vehicle: Klucel (hydroxypropylcellulose) (HPC)",105 % of control
same,T/C,"dose: 80.0 mg/kg/injection, schedule: Q01DX009 (ip), vehicle: Klucel (hydroxypropylcellulose) (HPC)",109 % of control and 110 % of control
same,T/C,"dose: 120.0 mg/kg/injection, schedule: Q01DX009 (ip), vehicle: Klucel (hydroxypropylcellulose) (HPC)",120 % of control and 122 % of control
Cc1cc(Cl)ccc1Nc1sc(C(=O)c2cc3cc(Cl)ccc3o2)c(N)c1C#N,T/C,[9],104 % of control
same,T/C,[11],93 % of control
same,T/C,[10],89 % of control
C=CCOB(OCC=C)OCC=C,T/C,[19],108 % of control
same,T/C,"dose: 25.0 mg/kg/injection, schedule: Q04DX003 (ip), vehicle: saline",100 % of control
same,T/C,[20],91 % of control
Nc1ccc(C(=O)O)c([N+](=O)[O-])c1,T/C,"dose: 12.5 mg/kg/injection, schedule: Q01DX009 (ip), vehicle: saline",92 % of control
same,T/C,"dose: 25.0 mg/kg/injection, schedule: Q01DX009 (ip), vehicle: saline",100 % of control
same,T/C,"dose: 50.0 mg/kg/injection, schedule: Q01DX009 (ip), vehicle: saline",105 % of control and 118 % of control
same,T/C,[20],99 % of control
same,T/C,"dose: 100.0 mg/kg/injection, schedule: Q01DX009 (ip), vehicle: saline",94 % of control and 98 % of control
same,T/C,"dose: 100.0 mg/kg/injection, schedule: Q04DX003 (ip), vehicle: saline",100 % of control
same,T/C,"dose: 200.0 mg/kg/injection, schedule: Q01DX009 (ip), vehicle: saline",107 % of control
same,T/C,"dose: 200.0 mg/kg/injection, schedule: Q04DX003 (ip), vehicle: saline",112 % of control
same,T/C,"dose: 400.0 mg/kg/injection, schedule: Q01DX009 (ip), vehicle: saline",100 % of control
same,T/C,"dose: 400.0 mg/kg/injection, schedule: Q04DX003 (ip), vehicle: saline",103 % of control
Cc1ccc(NS(=O)(=O)c2ccc([N+](=O)[O-])cc2)cc1,T/C,[1],90 % of control
same,T/C,"dose: 33.0 mg/kg/injection, schedule: Q01DX009 (ip), vehicle: saline with Tween-80",100 % of control
same,T/C,[9],90 % of control and 100 % of control
same,T/C,"dose: 75.0 mg/kg/injection, schedule: Q01DX009 (ip), vehicle: saline with Tween-80",95 % of control
same,T/C,[11],100 % of control
CC(c1ccccc1)[n+]1ccccc1C1OCCO1 (stereo not given),T/C,"dose: 6.25 mg/kg/injection, schedule: Q04DX003 (ip), vehicle: saline",100 % of control
same,T/C,[19],97 % of control
COc1ccc(-n2nc3c(c2-c2cccnc2)CCc2ccccc2-3)cc1,T/C,[15],103 % of control
same,T/C,[16],109 % of control
same,T/C,[17],105 % of control
O=I(=O)c1ccccc1,T/C,[18],91 % of control
same,T/C,"dose: 17.0 mg/kg/injection, schedule: Q01DX009 (ip), vehicle: saline with Tween-80",92 % of control
same,T/C,[12],86 % of control and 100 % of control
same,T/C,[8],96 % of control
same,T/C,[6],100 % of control
same,T/C,"dose: 37.0 mg/kg/injection, schedule: Q01DX009 (ip), vehicle: saline with Tween-80",96 % of control
same,T/C,[13],86 % of control and 90 % of control and 118 % of control
same,T/C,[9],115 % of control
same,T/C,[7],90 % of control
same,T/C,[14],104 % of control
same,T/C,[11],120 % of control
same,T/C,[2],90 % of control
O=CCSC(=S)NNc1ccccc1,T/C,"dose: 75.0 mg/kg/injection, schedule: Q01DX001 (ip), vehicle: Klucel (hydroxypropylcellulose) (HPC)",110 % of control
same,T/C,"dose: 150.0 mg/kg/injection, schedule: Q01DX001 (ip), vehicle: Klucel (hydroxypropylcellulose) (HPC)",105 % of control
same,T/C,"dose: 300.0 mg/kg/injection, schedule: Q01DX001 (ip), vehicle: Klucel (hydroxypropylcellulose) (HPC)",95 % of control
